A short description of the series: on-resin Glaser oxidative coupling of two terminal alkynes (i,i+7 side chains) to 1,3-diyne; CuCl 5 eq, 4,4'-bis(hydroxymethyl)-2,2'-bipyridine 7.5 eq, DIPEA 20 eq, microwave. The note with it: the molecule shown is the open-chain precursor, DMF, 10.0 mM, 60.0 °C, 3.0 h.

Each structure is given as a SMILES string.

Compound `C#CCCCCC[C@@](C)(NC(=O)[C@H](CCCNC(=N)NS(=O)(=O)c1c(C)c(C)c2c(c1C)CC(C)(C)O2)NC(=O)CNC(=O)[C@H](CCCC)NC(=O)[C@H](CCCNC(=N)NS(=O)(=O)c1c(C)c(C)c2c(c1C)CC(C)(C)O2)NC(=O)[C@H](C)NC(=O)[C@H](Cc1ccc(OC(C)(C)C)cc1)NC(=O)[C@](C)(CCCCCC#C)NC(=O)[C@H](CCCCNC(=O)OC(C)(C)C)NC(=O)[C@H](C)NC(=O)CCCCCNC(=O)OCC1c2ccccc2-c2ccccc21)C(=O)N[C@@H](CC(C)C)C(=O)N[C@@H](CCCCNC(=O)OC(C)(C)C)C(=O)N[C@@H](CCC(=O)OC(C)(C)C)C(=O)N[C@H](C(=O)N[C@@H](C)C(=O)N[C@@H](CCCCNC(=O)OC(C)(C)C)C(N)=O)[C@@H](C)CC` gave a ring closure, conversion by HPLC (36-membered ring) of 52%.

In the case of `C#CCCCCC[C@](C)(NC(=O)[C@H](CCCCNC(=O)OC(C)(C)C)NC(=O)[C@H](C)NC(=O)CCCCCNC(=O)OCC1c2ccccc2-c2ccccc21)C(=O)N[C@@H](Cc1ccc(OC(C)(C)C)cc1)C(=O)N[C@@H](C)C(=O)N[C@@H](CCCNC(=N)NS(=O)(=O)c1c(C)c(C)c2c(c1C)CC(C)(C)O2)C(=O)N[C@@H](CCCC)C(=O)NCC(=O)N[C@@H](CCCNC(=N)NS(=O)(=O)c1c(C)c(C)c2c(c1C)CC(C)(C)O2)C(=O)N[C@@](C)(CCCCCC#C)C(=O)N[C@@H](CC(C)C)C(=O)N[C@@H](CCCCNC(=O)OC(C)(C)C)C(=O)N[C@@H](CCC(=O)OC(C)(C)C)C(=O)N[C@H](C(=O)N[C@@H](C)C(=O)N[C@@H](CCCCNC(=O)OC(C)(C)C)C(N)=O)[C@@H](C)CC`, the ring closure, conversion by HPLC (36-membered ring) amounted to 100%. Take `C#CCCCCC[C@@](C)(NC(=O)[C@H](CCCCNC(=O)OC(C)(C)C)NC(=O)[C@H](C)NC(=O)CCCCCNC(=O)OCC1c2ccccc2-c2ccccc21)C(=O)N[C@@H](Cc1ccc(OC(C)(C)C)cc1)C(=O)N[C@@H](C)C(=O)N[C@@H](CCCNC(=N)NS(=O)(=O)c1c(C)c(C)c2c(c1C)CC(C)(C)O2)C(=O)N[C@@H](CCCC)C(=O)NCC(=O)N[C@@H](CCCNC(=N)NS(=O)(=O)c1c(C)c(C)c2c(c1C)CC(C)(C)O2)C(=O)N[C@](C)(CCCCCC#C)C(=O)N[C@@H](CC(C)C)C(=O)N[C@@H](CCCCNC(=O)OC(C)(C)C)C(=O)N[C@@H](CCC(=O)OC(C)(C)C)C(=O)N[C@H](C(=O)N[C@@H](C)C(=O)N[C@@H](CCCCNC(=O)OC(C)(C)C)C(N)=O)[C@@H](C)CC`: where the note is “36-membered ring”, the ring closure, conversion by HPLC was determined as 68%.

`C#CCCCC[C@](C)(NC(=O)[C@H](CCCCNC(=O)OC(C)(C)C)NC(=O)[C@H](C)NC(=O)CCCCCNC(=O)OCC1c2ccccc2-c2ccccc21)C(=O)N[C@@H](Cc1ccc(OC(C)(C)C)cc1)C(=O)N[C@@H](C)C(=O)N[C@@H](CCCNC(=N)NS(=O)(=O)c1c(C)c(C)c2c(c1C)CC(C)(C)O2)C(=O)N[C@@H](CCCC)C(=O)NCC(=O)N[C@@H](CCCNC(=N)NS(=O)(=O)c1c(C)c(C)c2c(c1C)CC(C)(C)O2)C(=O)N[C@@](C)(CCCCC#C)C(=O)N[C@@H](CC(C)C)C(=O)N[C@@H](CCCCNC(=O)OC(C)(C)C)C(=O)N[C@@H](CCC(=O)OC(C)(C)C)C(=O)N[C@H](C(=O)N[C@@H](C)C(=O)N[C@@H](CCCCNC(=O)OC(C)(C)C)C(N)=O)[C@@H](C)CC` displayed a ring closure, conversion by HPLC (34-membered ring) of 65%. Consider `C#CCCCCC[C@@](C)(NC(=O)[C@H](CCCCNC(=O)OC(C)(C)C)NC(=O)[C@H](C)NC(=O)CCCCCNC(=O)OCC1c2ccccc2-c2ccccc21)C(=O)N[C@@H](Cc1ccc(OC(C)(C)C)cc1)C(=O)N[C@@H](C)C(=O)N[C@@H](CCCNC(=N)NS(=O)(=O)c1c(C)c(C)c2c(c1C)CC(C)(C)O2)C(=O)N[C@@H](CCCC)C(=O)NCC(=O)N[C@@H](CCCNC(=N)NS(=O)(=O)c1c(C)c(C)c2c(c1C)CC(C)(C)O2)C(=O)N[C@@](C)(CCCCCC#C)C(=O)N[C@@H](CC(C)C)C(=O)N[C@@H](CCCCNC(=O)OC(C)(C)C)C(=O)N[C@@H](CCC(=O)OC(C)(C)C)C(=O)N[C@H](C(=O)N[C@@H](C)C(=O)N[C@@H](CCCCNC(=O)OC(C)(C)C)C(N)=O)[C@@H](C)CC`, for which the ring closure, conversion by HPLC (36-membered ring) was determined as 94%.

For the origin of these results see PMC10946806, “Development of Bifunctional, Raman Active Diyne‐Girder Stapled α‐Helical Peptides” (Chemistry (Weinheim an Der Bergstrasse, Germany), 2023).
